Test results taken from US20070049564A1 (Wyeth, priority 2005, published 2007).
Converted amounts (≈) assume the structure as drawn. Where two headings read alike, the source gives them in different places.

Columns and labels:
Assay in all cases: MIC, broth microdilution
E. coli GC 4560 = settings: Escherichia coli
S. pneumoniae* GC 4465 = settings: Streptococcus pneumoniae
P. aeruginosa GC 2214 = settings: Pseudomonas aeruginosa
E. faecalis GC 2242 = settings: Enterococcus faecalis
E. coli GC 2234 = settings: Escherichia coli
E. coli GC 2231 = settings: Escherichia coli
S. aureus GC 1131 = settings: Staphylococcus aureus
Description: (§1) Antimicrobial susceptibility testing. The in vitro activities of the antibiotics are determined by the broth microdilution method as recommended by the National Committee for Clinical Laboratory Standards (NCCLS) (1). Mueller-Hinton II broth (MHBII)(BBL Cockeysville, Md.) is the medium employed in the testing procedures. Microtiter plates containing serial dilutions of each antimicrobial agent are inoculated with each organism to yield the appropriate density (10^5 CFU/ml) in a 100 μl final volume. The plates are incubated for 18-22 hours at 35° C. in ambient air.
(§2) Representative compounds were first incubated in mouse serum for an hour prior to the in vitro testing against a panel of selected gram-positive and gram-negative bacteria strains. All compounds were also pre-incubated in water for an hour prior to testing as control.

S. pneumoniae+ GC 4465 = settings: Streptococcus pneumoniae
Description: as §1, §2

S. aureus GC 6466 = settings: Staphylococcus aureus
E. coli GC 4559 = settings: Escherichia coli
S. aureus GC 6467 = settings: Staphylococcus aureus
E. coli GC 2203 = settings: Escherichia coli
E. coli GC 2232 = settings: Escherichia coli
E. coli GC 2272 = settings: Escherichia coli
S. aureus GC 2216 = settings: Staphylococcus aureus
S. epidermidis GC 4935 = settings: Staphylococcus epidermidis
E. coli GC 6465 = settings: Escherichia coli
E. faecalis GC 2267 = settings: Enterococcus faecalis
S. aureus GC 4536 = settings: Staphylococcus aureus
[1] = read-out: MINIMAL INHIBITORY CONCENTRATION MIC, Human Serum
[2] = read-out: MINIMAL INHIBITORY CONCENTRATION MIC, Mouse Serum
[3] = read-out: MINIMAL INHIBITORY CONCENTRATION MIC, Water

COC(=O)N(CC(=O)Nc1cc(N(C)C)c2c(c1O)C(=O)C1=C(O)[C@]3(O)C(=O)C(C(N)=O)=C(O)[C@@H](N(C)C)[C@@H]3C[C@@H]1C2)C(C)(C)C [Example 60, methyl 2-{[(5aR,6aS,7S,10aS)-9-(aminocarbonyl)-4,7-bis(dimethylamino)-1,8,10a,11-tetrahydroxy-10,12-dioxo-5,5a,6,6a,7,10,10a,12-octahydrotetracen-2-yl]amino}-2-oxoethyl(tert-butyl)carbamate]
MIC (E. coli GC 4560; GC4560, read-out: MINIMAL INHIBITORY CONCENTRATION MIC, Human Serum): 1 µg/mL (≈ 1.55 µM) | MIC (E. coli GC 4560; GC4560, read-out: MINIMAL INHIBITORY CONCENTRATION MIC, Mouse Serum): 1 µg/mL (≈ 1.55 µM) | MIC (E. coli GC 4560; GC4560, read-out: MINIMAL INHIBITORY CONCENTRATION MIC, Water): 2 µg/mL (≈ 3.11 µM) | MIC (S. pneumoniae* GC 4465; [1]): 1 µg/mL (≈ 1.55 µM) | MIC (S. pneumoniae* GC 4465; [2]): 1 µg/mL (≈ 1.55 µM) | MIC (S. pneumoniae* GC 4465; [3]): 2 µg/mL (≈ 3.11 µM) | MIC (P. aeruginosa GC 2214; GC2214, read-out: MINIMAL INHIBITORY CONCENTRATION MIC, Human Serum): > 64 µg/mL | MIC (P. aeruginosa GC 2214; GC2214, read-out: MINIMAL INHIBITORY CONCENTRATION MIC, Mouse Serum): > 64 µg/mL | MIC (P. aeruginosa GC 2214; GC2214, read-out: MINIMAL INHIBITORY CONCENTRATION MIC, Water): > 64 µg/mL | MIC (E. faecalis GC 2242; GC2242, read-out: MINIMAL INHIBITORY CONCENTRATION MIC, Human Serum): 4 µg/mL (≈ 6.21 µM) | MIC (E. faecalis GC 2242; GC2242, read-out: MINIMAL INHIBITORY CONCENTRATION MIC, Mouse Serum): 8 µg/mL (≈ 12.4 µM) | MIC (E. faecalis GC 2242; GC2242, read-out: MINIMAL INHIBITORY CONCENTRATION MIC, Water): 8 µg/mL (≈ 12.4 µM) | MIC (E. coli GC 2234; GC2234, read-out: MINIMAL INHIBITORY CONCENTRATION MIC, Human Serum): > 64 µg/mL | MIC (E. coli GC 2234; GC2234, read-out: MINIMAL INHIBITORY CONCENTRATION MIC, Mouse Serum): > 64 µg/mL | MIC (E. coli GC 2234; GC2234, read-out: MINIMAL INHIBITORY CONCENTRATION MIC, Water): > 64 µg/mL | MIC (E. coli GC 2231; GC2231, read-out: MINIMAL INHIBITORY CONCENTRATION MIC, Human Serum): > 64 µg/mL | MIC (E. coli GC 2231; GC2231, read-out: MINIMAL INHIBITORY CONCENTRATION MIC, Mouse Serum): > 64 µg/mL | MIC (E. coli GC 2231; GC2231, read-out: MINIMAL INHIBITORY CONCENTRATION MIC, Water): > 64 µg/mL | MIC (S. aureus GC 1131; GC1131, read-out: MINIMAL INHIBITORY CONCENTRATION MIC, Human Serum): 2 µg/mL (≈ 3.11 µM) | MIC (S. aureus GC 1131; GC1131, read-out: MINIMAL INHIBITORY CONCENTRATION MIC, Mouse Serum): 2 µg/mL (≈ 3.11 µM) | MIC (S. aureus GC 1131; GC1131, read-out: MINIMAL INHIBITORY CONCENTRATION MIC, Water): 8 µg/mL (≈ 12.4 µM) | MIC (S. pneumoniae+ GC 4465; [1]): 2 µg/mL (≈ 3.11 µM) | MIC (S. pneumoniae+ GC 4465; [2]): 4 µg/mL (≈ 6.21 µM) | MIC (S. pneumoniae+ GC 4465; [3]): 4 µg/mL (≈ 6.21 µM) | MIC (S. aureus GC 6466; GC6466, read-out: MINIMAL INHIBITORY CONCENTRATION MIC, Human Serum): 4 µg/mL (≈ 6.21 µM) | MIC (S. aureus GC 6466; GC6466, read-out: MINIMAL INHIBITORY CONCENTRATION MIC, Mouse Serum): 4 µg/mL (≈ 6.21 µM) | MIC (S. aureus GC 6466; GC6466, read-out: MINIMAL INHIBITORY CONCENTRATION MIC, Water): 8 µg/mL (≈ 12.4 µM) | MIC (E. coli GC 4559; GC4559, read-out: MINIMAL INHIBITORY CONCENTRATION MIC, Human Serum): > 64 µg/mL | MIC (E. coli GC 4559; GC4559, read-out: MINIMAL INHIBITORY CONCENTRATION MIC, Mouse Serum): > 64 µg/mL | MIC (E. coli GC 4559; GC4559, read-out: MINIMAL INHIBITORY CONCENTRATION MIC, Water): > 64 µg/mL | MIC (S. aureus GC 6467; GC6467, read-out: MINIMAL INHIBITORY CONCENTRATION MIC, Human Serum): 4 µg/mL (≈ 6.21 µM) | MIC (S. aureus GC 6467; GC6467, read-out: MINIMAL INHIBITORY CONCENTRATION MIC, Mouse Serum): 4 µg/mL (≈ 6.21 µM) | MIC (S. aureus GC 6467; GC6467, read-out: MINIMAL INHIBITORY CONCENTRATION MIC, Water): 8 µg/mL (≈ 12.4 µM) | MIC (E. coli GC 2203; GC2203, read-out: MINIMAL INHIBITORY CONCENTRATION MIC, Human Serum): > 64 µg/mL | MIC (E. coli GC 2203; GC2203, read-out: MINIMAL INHIBITORY CONCENTRATION MIC, Mouse Serum): > 64 µg/mL | MIC (E. coli GC 2203; GC2203, read-out: MINIMAL INHIBITORY CONCENTRATION MIC, Water): > 64 µg/mL | MIC (E. coli GC 2232; GC2232, read-out: MINIMAL INHIBITORY CONCENTRATION MIC, Human Serum): > 64 µg/mL | MIC (E. coli GC 2232; GC2232, read-out: MINIMAL INHIBITORY CONCENTRATION MIC, Mouse Serum): > 64 µg/mL | MIC (E. coli GC 2232; GC2232, read-out: MINIMAL INHIBITORY CONCENTRATION MIC, Water): > 64 µg/mL | MIC (E. coli GC 2272; GC2272, read-out: MINIMAL INHIBITORY CONCENTRATION MIC, Human Serum): 32 µg/mL (≈ 49.7 µM) | MIC (E. coli GC 2272; GC2272, read-out: MINIMAL INHIBITORY CONCENTRATION MIC, Mouse Serum): 32 µg/mL (≈ 49.7 µM) | MIC (E. coli GC 2272; GC2272, read-out: MINIMAL INHIBITORY CONCENTRATION MIC, Water): 64 µg/mL (≈ 99.4 µM) | MIC (S. aureus GC 2216; GC2216, read-out: MINIMAL INHIBITORY CONCENTRATION MIC, Human Serum): 2 µg/mL (≈ 3.11 µM) | MIC (S. aureus GC 2216; GC2216, read-out: MINIMAL INHIBITORY CONCENTRATION MIC, Mouse Serum): 2 µg/mL (≈ 3.11 µM) | MIC (S. aureus GC 2216; GC2216, read-out: MINIMAL INHIBITORY CONCENTRATION MIC, Water): 4 µg/mL (≈ 6.21 µM) | MIC (S. epidermidis GC 4935; GC4935, read-out: MINIMAL INHIBITORY CONCENTRATION MIC, Human Serum): 8 µg/mL (≈ 12.4 µM) | MIC (S. epidermidis GC 4935; GC4935, read-out: MINIMAL INHIBITORY CONCENTRATION MIC, Mouse Serum): 8 µg/mL (≈ 12.4 µM) | MIC (S. epidermidis GC 4935; GC4935, read-out: MINIMAL INHIBITORY CONCENTRATION MIC, Water): 16 µg/mL (≈ 24.9 µM) | MIC (E. coli GC 6465; GC6465, read-out: MINIMAL INHIBITORY CONCENTRATION MIC, Human Serum): > 64 µg/mL | MIC (E. coli GC 6465; GC6465, read-out: MINIMAL INHIBITORY CONCENTRATION MIC, Mouse Serum): > 64 µg/mL | MIC (E. coli GC 6465; GC6465, read-out: MINIMAL INHIBITORY CONCENTRATION MIC, Water): > 64 µg/mL | MIC (E. faecalis GC 2267; GC2267, read-out: MINIMAL INHIBITORY CONCENTRATION MIC, Human Serum): 4 µg/mL (≈ 6.21 µM) | MIC (E. faecalis GC 2267; GC2267, read-out: MINIMAL INHIBITORY CONCENTRATION MIC, Mouse Serum): 8 µg/mL (≈ 12.4 µM) | MIC (E. faecalis GC 2267; GC2267, read-out: MINIMAL INHIBITORY CONCENTRATION MIC, Water): 8 µg/mL (≈ 12.4 µM) | MIC (S. aureus GC 4536; GC4536, read-out: MINIMAL INHIBITORY CONCENTRATION MIC, Human Serum): 2 µg/mL (≈ 3.11 µM) | MIC (S. aureus GC 4536; GC4536, read-out: MINIMAL INHIBITORY CONCENTRATION MIC, Mouse Serum): 2 µg/mL (≈ 3.11 µM) | MIC (S. aureus GC 4536; GC4536, read-out: MINIMAL INHIBITORY CONCENTRATION MIC, Water): 4 µg/mL (≈ 6.21 µM)
